For this assay, the system named is MRSA USA300. Type of assay: cell-based, Staphylococcus aureus. Conditions: vs S. aureus RN4220.

Turning to `CC1(C)S[C@@H]2[C@H](NC(=O)[C@H](N)c3ccccc3)C(=O)N2[C@H]1C(=O)O` [ampicillin], the “MIC increase in MRSA USA300 relative to the methicillin-susceptible strain” value was “at least 16 fold”.

(Values after PMC10866013 (Nature, 2023).)
